From patent publication US20230025280A1, “PH RESPONSIVE COMPOSITIONS, FORMULATIONS, AND METHODS OF IMAGING A TUMOR” (ONCONANO MEDICINE, INC, priority 2019, published 2023)
Where “and” joins values, the source holds several entries; their conditions need not be identical. Identical values can stand only once. Entries after “also recorded” stand apart in the source; their conditions may differ.

Legend:
lymph node metastases = assay: Lymph node imaging (PEARL) versus H/E staining; format: in vivo, human
Description: After lymph node dissection, lymph nodes were identified by the attending pathologist and harvested if present. After harvesting, the single lymph nodes were imaged before further processing using PEARL imaging. The images were processed using ImageJ (FiJi). The fluorescent images were reviewed by 2 separate researchers blinded for histology, whether fluorescence was present. The pathologist, blinded for fluorescence images, evaluated whether the lymph node was positive for tumor invasion or isolated tumor cells based on H/E staining.

[1] = test system: histology-confirmed tumor and normal tissue; assay: Postoperative tissue slice fluorescence imaging (LI-COR Pearl; MFI, CNR, TBR, ROC) correlated with histopathology; format: in vivo, human; details: for Ex Vivo Tissue Slice CNR / Ex Vivo Tissue Slice TBR: per patient, LI-COR Pearl
Description: Timing of postoperative tissue slice imaging was adapted to accommodate the differences in the SOC for specimen processing of the different tumor types. Briefly, BC specimens were sliced fresh on the day of surgery and then formalin fixed, other tumor types were sliced after formalin fixation of the whole resection specimen 1 to 3 days after surgery. Generally, the surgical specimen was serially sliced into ±0.5 cm thick tissue slices. White light photographs were made during and directly after slicing for orientation purposes. After slicing, fluorescence imaging on both sides of each tissue slice was performed in a light-tight environment (LI-COR PEARL® Trilogy system). BC slices were therefore imaged approximately 120 min after excision, other tumor types were sliced and imaged the subsequent day(s) after excision and formalin fixation.
Each BLS underwent overnight formalin fixation in 4% paraformaldehyde/phosphate buffered saline. The pathologist then macroscopically sampled parts of BLS (FFPE embedding) for further analysis according to SOC and preparation of 4 μm slices for hematoxylin and eosin (H/E) staining to delineate tumor tissue for histopathological correlation. Additional FFPE blocks could be embedded based on fluorescence imaging of the BLS additional to the SOC examination by conventional macroscopic visual inspection of the pathologist. A standardized workflow was executed in order to cross-correlate final histopathology results with recorded fluorescence images of tissue slices of interest. FFPE blocks were scanned after 7 to 14 days using the Odyssey Flatbed Scanner (LI-COR Bioscience).
After the SOC pathological procedure was performed (approximately 7-10 days for Phase 1a and 7-14 days for Phase 1b), H/E slices were reviewed and discussed with the dedicated board-certified pathologist for the respective tumor type.
A correlation between HE slices and fluorescence images (i.e., bread loaf slice or BLS) were made using Adobe Illustrator and Fiji (ImageJ). After precisely and manually drawing the region of interest (ROI) containing tumor and background based on the histopathological outcome, a CNR was calculated for each LI-COR PEARL image of a separate BLS for each patient. The median CNR was calculated based on all available BLS containing tumor.
Compound 1 fluorescence images were captured from the postoperative specimens (BLS specimens) prepared at each step of the standard pathology for the purposes of correlating Compound 1 fluorescence with histopathological finding of the tumor and the normal tissue. LI COR PEARL, a laboratory camera with capabilities to standardize imaging and fluorescence quantification, was used to compare fluorescence intensity across multiple specimens.
Intraoperative fluorescence intensity cannot be standardized and compared between patients or dose levels due to the unique presentation of each surgical environment. Multiple variables such as camera angle, camera-tissue distance, tumor location, and coverage by other tissues or fat affect the absolute value of the fluorescence signal. To enable direct comparison of MFI across patients and doses, patient tissue slices were imaged with LI-COR Pearl, the standardizable close field camera, using the standard postoperative workflow for fluorescence.

HNSCC specimen = assay: Fluorescence microscopy after spraying Compound 1 onto freshly frozen tissue sections; design: species or system human; details: sprayed ex vivo onto freshly frozen HNSCC sections
Description: FIGS. 18A-18B describes fluorescence microscopy to confirm tumor-specific activation of Compound 1. […] DAPI was applied for nuclear staining (a) and Compound 1 for fluorescence visualization (b). […] RFU: relative fluorescence units.

[2] = 403 lymph nodes across 4 tumor types
[3] = TOTAL of all patients, 403 lymph nodes
[4] = lymph nodes per patient, fluorescence vs H/E pathology

PEO90-140-b-P(DBA60-150-r-ICG0-3-r-AMA0-3) [Compound 1]
Overall sensitivity in lymph nodes (lymph node metastases; 30/(30+34)): 0.47
Overall specificity in lymph nodes (lymph node metastases; 293/(46+293)): 0.86
Lymph nodes fluorescence negative / H/E negative (lymph node metastases; [2]): 293 of 339 and 293
Lymph nodes fluorescence negative / H/E positive (lymph node metastases; [2]): 34
Lymph nodes fluorescence negative, TOTAL (lymph node metastases; [2]): 327
Lymph nodes fluorescence positive / H/E negative (lymph node metastases; [2]): 46
Lymph nodes fluorescence positive / H/E positive (lymph node metastases; [2]): 30
Lymph nodes fluorescence positive, TOTAL (lymph node metastases; [2]): 76
False Negatives n (lymph node metastases; [3]): 34
False Positives n (lymph node metastases; [3]): 46
True Negatives n (lymph node metastases; [3]): 293
True Positives n (lymph node metastases; [3]): 30
False Negatives n (lymph node metastases; [4]): 0 (23×) and 1 (4×) and 3 and 2 and 25
False Positives n (lymph node metastases; [4]): 0 (12×) and 3 (4×) and 1 (9×) and 4 and 2 (2×) and 6 and 11
True Negatives n (lymph node metastases; [4]): 0 (12×) and 50 and 14 (2×) and 7 and 44 and 20 and 2 (3×) and 34 and 1 (2×) and 15 and 41 and 8 and 16 and 18 and 4
True Positives n (lymph node metastases; [4]): 2 (2×) and 0 (22×) and 1 (4×) and 12 and 10
Ex Vivo Tissue Slice CNR ([1]; 0.1 mg/kg, HNSCC): 3.5 and 3.2 and 0.9
Ex Vivo Tissue Slice TBR ([1]; 0.1 mg/kg, HNSCC): 4.5 (2×) and 1.9
Ex Vivo Tissue Slice CNR ([1]; 0.3 mg/kg, BC): 7.0 and 14.1 and 3.2
Ex Vivo Tissue Slice TBR ([1]; 0.3 mg/kg, BC): 4.5 and 27.0 and 4.2
Ex Vivo Tissue Slice CNR ([1]; 0.5 mg/kg, BC): 6.4
Ex Vivo Tissue Slice TBR ([1]; 0.5 mg/kg, BC): 5.0
Ex Vivo Tissue Slice CNR ([1]; 0.5 mg/kg, HNSCC): 3.1 and 1.8
Ex Vivo Tissue Slice TBR ([1]; 0.5 mg/kg, HNSCC): 3.9 and 2.2
Ex Vivo Tissue Slice CNR ([1]; 0.8 mg/kg, BC): 5.7 and 9.2
Ex Vivo Tissue Slice TBR ([1]; 0.8 mg/kg, BC): 8.0 and 11.9
Ex Vivo Tissue Slice CNR ([1]; 0.8 mg/kg, HNSCC): 4.8
Ex Vivo Tissue Slice TBR ([1]; 0.8 mg/kg, HNSCC): 5.9
Ex Vivo Tissue Slice CNR ([1]; 1.2 mg/kg, BC): 3.9 and 10.5 and 7.6 and 3.4
Ex Vivo Tissue Slice TBR ([1]; 1.2 mg/kg, BC): 4.8 and 14.2 and 12.0 and 4.2
Ex Vivo Tissue Slice CNR ([1]; 1.2 mg/kg, CRC): 12.8
Ex Vivo Tissue Slice TBR ([1]; 1.2 mg/kg, CRC): 16.9
Ex Vivo Tissue Slice CNR ([1]; 1.2 mg/kg, EC): 2.9 and 2.1
Ex Vivo Tissue Slice TBR ([1]; 1.2 mg/kg, EC): 3.4 and 3.2
Ex Vivo Tissue Slice CNR ([1]; 1.2 mg/kg, HNSCC): 2.4 and 1.9 (2×) and 3.5 (2×) and 2.8 and 4.4
Ex Vivo Tissue Slice TBR ([1]; 1.2 mg/kg, HNSCC): 2.9 and 2.2 and 5.4 and 3.7 and 2.5 and 6.5 and 5.2
Patient tumor specimens with postoperative imaging feasibility ([1]; Phase 1a, 0.1 to 1.2 mg/kg): 15
Tumor MFI compared with non-tumor tissue ([1]; all dose cohorts): significantly higher
Median tumor-to-background ratio (TBR) ([1]; all tissue slices (n=97 from 26 subjects), IQR 3.1): 4.5
Postoperative fluorescence of tumors ([1]; all tumor types and doses): fluoresced in tissue slices from all the patients and tumor types; also recorded: all tumors irrespective of tumor type or dose were fluorescent
Tumor MFI in relation to dose ([1]; postoperative tissue slices, 0.1 to 1.2 mg/kg): increased with dose
ROC curve AUC ([1]; tissue slices, 1.2 mg per kg dose cohort, n=59): 0.9875
ROC curve area under the curve ([1]; tissue slices, measurement level, P<0.0001): 0.9726
TBR ([1]; tissue slices, 1.2 mg/kg, IQR 3.0): 4.5
Fluorescence delineation on tissue sections (HNSCC specimen): sharp delineation of fluorescence between the tumor and stromal tissue
